# Results taken from patent publication US20200087258A1, “INHIBITOR OF CITRATE TRANSPORTER AND THEIR USE IN THERAPY” (Eternygen GmbH, priority 2017, published 2020).
# Target: T1, INDY (Homo sapiens, UniProt Q86YT5)
# Test: 14C-citrate uptake in HepG2 cells endogenously expressing INDY (NaCT)
# Format: cell-based
# Settings: endogenous INDY
# Experimental: (§1) The compound was obtained by screening of a library containing more than 50,000 lead-like compounds and fragments. The library was tested using a functional citrate uptake assay with HEK293 cells overexpressing recombinant human INDY. The following hit confirmation was conducted in the same assay system. To confirm the activity of selected compounds on the target INDY another cell assay was conducted. In this assay system citrate uptake was measured using HepG2 cells which endogenously express INDY. Furthermore selectivity of selected compounds was tested for two other transporters in different assay systems. The first transporter was the glutamate transporter GLT-1 tested in a glutamate uptake assays using HEK293 cells overexpressing recombinant human GLT-1. The second transporter was the glucose transporter GLUT1 tested in a glucose uptake assay using Huh-7 cells which endogenously express GLUT1. Compounds were considered to be selective with an at least 5-fold higher activity for INDY than for the other two transporters.
# (§2) Cells were maintained in cell medium using cell culture grade flasks (CellSTACK Corning, 500 cm2 dishes or T175 depending on cell number). The selection antibiotic and G418 (800 μg/ml) was added during cultivation but not for seeding into assay plates. For splitting, cells were washed with PBS (w/o Ca2+, Mg2+, phenol red) and detached with Trypsin/EDTA. Throughout cultivation cells were kept sub-confluent. Detached cells (50,000 cells/well) were seeded in 96-well plates (white, clear bottom from Corning #655098) and incubated over night before usage in the assay. The following media were used. For HEK293 cells expressing INDY MEM (PAA)+10% FCS+1×P/S+2 mM L-Gln; for HEK293 cells expressing GLT-1 DMEM (Gibco)+10% FCS+400 µg/ml G418; for Huh7 cells DMEM (Gibco)+10% FCS+2 mM L-Gin (+1×P/S); for HepG2 cells MEM (PAA, Cat # E15-024)+10% FCS+2 mM L-Gin+1×NEAA+1 mM Na-Pyruvat
# (§3) The following assay buffers for the particular uptake reaction were used. Citrate uptake buffer: 120 mM NaCl, 5.4 mM KCl, 0.8 mM MgSO4, 5 mM glucose, 1.8 mM CaCl2, 25 mM Hepes, 25 mM MES, pH 6.5. Glutamate uptake buffer: HBSS, 1 mM CaCl2, 1 mM MgCl2, 20 mM Hepes pH 7.4. Glucose uptake buffer: 25 mM Hepes+25 mM MES pH 7.4, 120 mM NaCl, 5.4 mM KCl, 1.8 mM CaCl2, 0.8 mM MgSO4.
# INDY mediated citrate uptake was also determined in HepG2 cells. To determine the uptake of ^14C labelled citrate into cells, HepG2 cells endogenously expressing human NaCT were used. (Gopal et al. 2007 Am J Physiol Gastrointest Liver Physiol 292).
# HepG2 cells were seeded into white clear-bottom 96-well plates (50,000/well) coated with collagen and incubated at 37° C. for 16-24 hours. After that plates were washed once with assay buffer using automated washing/LS 405 Selectors, BioTek ending with a buffer volume of 40 μl. Then 5 μl of compound solution in assay buffer was added and incubated for 5 min at 37° C. in cell incubator, HERA cell Heraeus. Afterwards 10 μl of substrate 14C-citrate (10 nM) were added and incubated for another 90 min at 37° C. in cell incubator, HERAcell. Then plates were washed 3× with 200 μl buffer and […] cell lysis induced by adding 50 μl ice-cold NaOH (100 mM). Plates were incubated for 25 min at RT on a plate shaker and afterwards 200 μl scintillation fluid was added and incubated for 15 min on a plate shaker at RT and for another 15 min without shaking at RT. Plates were measured using a TopCount system. As a positive control 5 mM citrate was applied. It is possible to use this assay also in analogy in a 384-well plate format.
# T1 sequence (Q86YT5 whole entry): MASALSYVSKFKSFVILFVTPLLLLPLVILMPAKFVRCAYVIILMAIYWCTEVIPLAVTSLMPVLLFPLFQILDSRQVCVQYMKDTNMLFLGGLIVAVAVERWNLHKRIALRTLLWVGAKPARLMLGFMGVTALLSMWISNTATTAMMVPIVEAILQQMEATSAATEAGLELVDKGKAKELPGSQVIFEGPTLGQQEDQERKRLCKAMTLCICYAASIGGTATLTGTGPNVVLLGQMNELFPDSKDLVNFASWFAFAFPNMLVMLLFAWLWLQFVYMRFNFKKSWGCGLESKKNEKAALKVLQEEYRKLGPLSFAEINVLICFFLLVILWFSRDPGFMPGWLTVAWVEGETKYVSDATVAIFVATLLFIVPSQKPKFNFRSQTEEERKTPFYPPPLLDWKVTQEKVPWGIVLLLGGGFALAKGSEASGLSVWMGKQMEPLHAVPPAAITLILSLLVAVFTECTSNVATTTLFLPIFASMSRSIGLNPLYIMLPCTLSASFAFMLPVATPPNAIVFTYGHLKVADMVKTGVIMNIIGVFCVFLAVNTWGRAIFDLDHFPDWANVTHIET
row,IC50,Structure (SMILES)
1,> 50 µM,"O=C(NCc1ccccc1F)C1CCN(S(=O)(=O)C2=Cc3ccccc3OC2)CC1 [Example 9, 1-(2H-chromene-3-sulfonyl)-N-[(2-fluorophenyl)methyl]piperidine-4-carboxamide]"
2,11.3 µM,"O=C(NCc1ccccn1)C1CCN(S(=O)(=O)/C=C/c2ccccc2)CC1 [Example 3, 1-[(E)-2-phenylethenesulfonyl]-N-(pyridin-2-ylmethyl)piperidine-4-carboxamide]"
3,> 50 µM,"O=C(NCc1ccccc1F)N1CCN(S(=O)(=O)/C=C/c2ccccc2)CC1 [Example 7, N-[(2-fluorophenyl)methyl]-4-[(E)-2-phenylethenesulfonyl]piperazine-1-carboxamide]"
4,> 50 µM,"CN(Cc1ccccc1F)C(=O)C1CCN(S(=O)(=O)/C=C/c2ccccc2)CC1 [Example 8, N-[(2-fluorophenyl)methyl]-N-methyl-1-[(E)-2-phenylethenesulfonyl]piperidine-4-carboxamide]"
5,5.7 µM,"COc1ccc(S(=O)(=O)N2CCC(C(=O)NCc3ccccc3F)CC2)cc1 [Example 4, N-[(2-fluorophenyl)methyl]-1-(4-methoxybenzenesulfonyl) piperidine-4-carboxamide]"

# Target: T1, INDY
# Test: 14C-citrate uptake in HEK293 cells overexpressing recombinant human INDY (NaCT)
# Format: cell-based
# Parameters: expressed in transfected cells; host or cells: HEK293
# Settings: not given
# Experimental: as §1, §2, §3
# INDY mediated citrate uptake was determined in HEK293 cells. To determine the uptake of ^14C labelled citrate into cells, HEK293 cells over-expressing human NaCT were used. Cloning of human NaCT was done in analogy as described in Birkenfeld et al. (Birkenfeld et al., 2011, Cell Metabolism 14, 184-195, 2011).
# Human NaCT HEK293 cells were seeded into white clear-bottom 96-well plates (50,000/well) in the presence of 4 μg/ml Poly-D-Lysine and incubated at 37° C. for 16-24 hours. On the days of the assay the plates were washed once with assay buffer using automated washing/LS 405 Selectors, BioTek ending with a buffer volume of 40 μl. Then 5 μl of compound solution in assay buffer was added and incubated for 5-30 min at 37° C. in cell incubator, HERA cell Heraeus. Afterwards 10 μl of substrate 14C-citrate ([…]/[…] per well) were added and incubated for another 20-90 min at 37° C. in cell incubator, HERAcell. Then plates were washed twice with 200 μl ice-cold assay buffer and residual volume was discarded. For cell lysis 50 μl ice-cold NaOH (100 mM) was added and incubated for 15 minutes at RT on a plate shaker. Finally, 200 μl scintillation fluid (scintillator OptiPhase Supermix, Perkin Elmer) was added. After 15 min incubation at RT without shaking, plates were measured using a TopCount reader system (Perkin Elmer). As a positive control 10 mM citrate was applied. It is possible to use this assay also in analogy in a 384-well plate format.
row,IC50,Structure (SMILES)
1,> 20 µM,"O=C(NCc1ccccc1F)C1CCN(S(=O)(=O)c2ccc(CN3CCCC3)cc2)CC1 [Example 105, N-[(2-fluorophenyl)methyl]-1-{4-[(pyrrolidin-1-yl)methyl]benzenesulfonyl}piperidine-4-carboxamide]"
2,> 20 µM,"CNC(C)c1cccc(S(=O)(=O)N2CCC(C(=O)NCc3ccccc3F)CC2)c1 (centres unmarked) [Example 110, N-[(2-fluorophenyl)methyl]-1-{3-[1-(methylamino)ethyl]benzenesulfonyl}piperidine-4-carboxamide]"
3,> 20 µM,"O=C(O)c1ccc(S(=O)(=O)N2CCC(C(=O)NCc3ccccc3F)CC2)cc1 [Example 91, 4-[(4-{[(2-fluorophenyl)methyl]carbamoyl}piperidin-1-yl)sulfonyl]benzoic acid]"
4,> 20 µM,"CCCNC(C)c1cccc(S(=O)(=O)N2CCC(C(=O)NCc3ccccc3F)CC2)c1 (centres unmarked) [Example 109, N-[(2-fluorophenyl)methyl]-1-{3-[1-(propylamino)ethyl]benzenesulfonyl}piperidine-4-carboxamide]"
5,> 20 µM,"O=C(NCc1ccccc1F)C1CCN(S(=O)(=O)c2ccc([N+](=O)[O-])cc2)CC1 [Example 17, N-[(2-fluorophenyl)methyl]-1-(4-nitrobenzenesulfonyl)piperidine-4-carboxamide]"
6,> 20 µM,"O=C(NCc1ccccc1F)C1CCN(S(=O)(=O)c2ccc(O)cc2)CC1 [Example 72, N-[(2-fluorophenyl)methyl]-1-(4-hydroxybenzenesulfonyl)pipendine-4-carboxamide]"
7,11.8 µM,"O=C(NCc1ccccc1F)C1CCN(S(=O)(=O)c2ccc(F)cc2)CC1 [Example 45, 1-(4-fluorobenzenesulfonyl)-N-[(2-fluorophenyl)methyl]piperidine-4-carboxamide]"
8,11.1 µM,"CC(=O)c1cccc(S(=O)(=O)N2CCC(C(=O)NCc3ccccc3F)CC2)c1 [Example 106, 1-(3-acetylbenzenesulfonyl)-N-[(2-fluorophenyl)methyl]piperidine-4-carboxamide]"
9,> 20 µM,"COC(=O)c1cccc(S(=O)(=O)N2CCC(C(=O)NCc3ccccc3F)CC2)c1 [Example 88, methyl 3-[(4-{[(2-fluorophenyl)methyl]carbamoyl}piperidin-1-yl)sulfonyl]benzoate]"

# Further lines, the molecule ahead of its results:
row,Structure (SMILES),IC50
1,"O=C(NCc1ccccn1)C1CCN(S(=O)(=O)c2cccc([N+](=O)[O-])c2)CC1 [Example 76, 1-(3-nitrobenzenesulfonyl)-N-[(pyridin-2-yl)methyl]pipendine-4-carboxamide]",> 20 µM
2,"Cc1cc(S(=O)(=O)N2CCC(C(=O)NCc3ccccn3)CC2)ccc1Cl [Example 121, 1-(4-chloro-3-methylbenzenesulfonyl)-N-[(pyridin-2-yl)methyl]piperidine-4-carboxamide]",18.8 µM
3,"O=C(NCc1ccccc1C(F)(F)F)C1CCN(S(=O)(=O)/C=C/c2ccccc2)CC1 [Example 11, 1-[(E)-2-phenylethenesulfonyl]-N-{[2-(trifluoromethyl)phenyl]methyl}piperidine-4-carboxamide]",> 20 µM
4,"O=C(NCc1ccccc1F)C1CN(S(=O)(=O)c2ccc(C(F)(F)F)cc2)C1 [Example 52, N-[(2-fluorophenyl)methyl]-1-[4-(trifluoromethyl)benzenesulfonyl]azetidine-3-carboxamide]",> 20 µM
5,"CS(=O)(=O)c1ccccc1CNC(=O)C1CCN(S(=O)(=O)/C=C/c2ccccc2)CC1 [Example 18, N-[(2-methanesulfonylphenyl)methyl]-1-[(E)-2-phenylethenesulfonyl]piperidine-4-carboxamide]",> 20 µM
6,"COc1ccc(CNC(=O)C2CCN(S(=O)(=O)/C=C/c3ccccc3)CC2)c(F)c1 [Example 48, N-[(2-fluoro-4-methoxyphenyl)methyl]-1-[(E)-2-phenylethenesulfonyl]piperidine-4-carboxamide]",> 20 µM
7,"COC(=O)c1ccccc1CNC(=O)C1CCN(S(=O)(=O)/C=C/c2ccccc2)CC1 [Example 66, methyl 2-[({1-[(E)-2-phenylethenesulfonyl]piperidin-4-yl}formamido)methyl]benzoate]",12.9 µM
8,"CC(C)Oc1ccccc1CNC(=O)C1CCN(S(=O)(=O)/C=C/c2ccccc2)CC1 [Example 54, 1-[(E)-2-phenylethenesulfonyl]-N-{[2-(propan-2-yloxy)phenyl]methyl}piperidine-4-carboxamide]",> 20 µM
9,"O=C(NCc1ccccn1)C1CCN(S(=O)(=O)c2ccc(N3CCCC3)cc2)CC1 [Example 70, N-[(pyridin-2-yl)methyl]-1-[4-(pyrrolidin-1-yl)benzenesulfonyl]pipendine-4-carboxamide]",> 20 µM
10,"CC(C)(C)c1ccccc1S(=O)(=O)N1CCC(C(=O)NCc2ccccc2F)CC1 [Example 42, 1-(2-tert-butylbenzenesulfonyl)-N-[(2-fluorophenyl)methyl]piperidine-4-carboxamide]",> 20 µM
11,"NC(=O)c1ccccc1CNC(=O)C1CCN(S(=O)(=O)c2cc(Cl)cc(Cl)c2)CC1 [Example 80, N-[(2-carbamoylphenyl)methyl]-1-(3,5-dichlorobenzenesulfonyl)pipendine-4-carboxamide]",> 20 µM
12,"CC(C)(C)c1ccc(S(=O)(=O)N2CC(C(=O)NCc3ccccn3)C2)cc1 [Example 51, 1-(4-tert-butylbenzenesulfonyl)-N-[(pyridin-2-yl)methyl]azetidine-3-carboxamide]",14.4 µM
